Data as given in patent US20050038058A1, “Novel compounds and methods for therapy” (Institute of Organic Chemistry and Biochemistry, priority 2001, published 2005).
≈ marks a conversion by molar mass, not a printed value. Like-named read-outs stand apart in the source and are kept apart here. Marks after values point to notes of the source that are not given here.

Tests used:
HIV-1(IIIB) [1] = test: HIV-1(IIIB)-induced cytopathicity in MT-4 cell cultures; type: cell-based; details: Table 2
Text: (§1) Viruses. The origins of MSV, HIV type 1 (HIV-1) (strain IIIB and Ba-L), HIV-2 (strain ROD) and FIV (strain Petaluma) have been described previously (Balzarini et al., AIDS 5: 21-28, 1991; De Clercq et al., Proc. Soc. Exp. Biol. Med. 137:590-594, 1971; Egberink et al., Proc. Natl. Acad. Sci. 87:3087-3091, 1990; Hartmann et al., Antiviral Chem. Chemother. 5:13-19, 1994; Popovic et al., Science 224:497-500, 1984). HIV-1(IIIB) and HIV-2(ROD) stocks were obtained from supernatants of virus-infected MT-4 cell cultures. HIV-1BaL was expanded in human primary M/M, whose supernatants were collected, filtered and stored at −80° C. before use. Characteristics of viral stocks used for this study were 2.1×10^8 HIV-RNA genomes/ml (corresponding to 35 ng of p24 antigen) and 5,000 tissue culture infectious doses 50% per ml (TCID50/ml) as assessed by virus titration in other primary M/M cultures. The isolation and characterization of the clinical HIV-1 isolates L1S, L6S and L6S/PMEA has been reported (Thormar et al., Proc. Natl. Acad. Sci. USA 93:3283-3287, 1995; Van Laethem et al., AIDS 15:553-561, 2001). […] HIV-1/L6S/PMEA is the clinical isolate HIV-1/L6S that has been isolated after culturing the virus for 11 passages in the presence of increasing concentrations of PMEA (adefovir).
(§2) In vitro antiviral assays. The activity against HIV-1- and HIV-2-induced cytopathicity was examined in MT-4 cell cultures at day 5 post infection and based on the determination of cell viability by trypan blue dye staining or in CEM cell cultures at day 4 to 5 post infection and based on the microscopical examination of virus-induced giant cell formation. HIV-1 and HIV-2 were added at 100 CCID50 to the cell cultures.

CEM cells = test: Incorporation of [3H]thymidine, [3H]uridine and [3H]leucine into CEM cell material; type: cell-based; details: 200 μg/mL; 12 hour incubation period
Protocol: The incorporation of [methyl-^3H]thymidine, [^3H]uridine and [^3H]leucine into the methanol-insoluble CEM cell fraction was also measured in microplates. To each well were added 10^5 CEM cells, 5.9 pmol (0.25 μCi) of [methyl-^3H]thymidine, 38 pmol (1.0 μCi) of [^3H]uridine and 19 pmol (1.0 μCi) [4,5-^3H]leucine, and a given amount of the test compound. […] At the end of this incubation period, the contents of the wells (200 μl) were brought onto 25-mm glass fiber filters (type A/G; Gelman Instrument Co., Ann Arbor, Mich.) mounted on a Millipore 3025 sampling manifold apparatus. The filters were washed twice with cold PBS (phosphate-buffered saline), twice with cold 10% trichloroacetic acid, twice with cold 5% trichloroacetic acid, once with cold ethanol, and once with cold ether. The filters were then allowed to dry for 10 min at 60° C. and assayed for radioactivity in a toluene-based scintillant.

HIV-1/L1S = type: cell-based; details: measured against the laboratory HIV-1/IIIB strain in CEM cell cultures
Text: as §1, §2

HIV-1/L6S/PMEA = type: cell-based; details: measured against the laboratory HIV-1/IIIB strain in CEM cell cultures
Text: as §1, §2

HIV-1/L6S = type: cell-based; details: measured against the laboratory HIV-1/IIIB strain in CEM cell cultures
Text: as §1, §2

HIV-2(ROD) [2] = test: HIV-2(ROD)-induced cytopathicity in MT-4 cell cultures; type: cell-based
Text: as §1, §2

C3H cells = test: Alteration of C3H cell morphology (minimal inhibitory concentration); type: cell-based, murine
PBL = test: Cell viability in PBL; type: cell-based; details: reduction of cell viability; Table 2
HIV-2(ROD) [3] = test: HIV-2(ROD)-induced cytopathicity in CEM cell cultures; type: cell-based
Text: as §1, §2

MSV = type: in vivo; details: for Number of Mice not Developing a Tumor (percent): intraperitoneal, 5 daily doses, newborn NMRI mice
HIV-1(IIIB) [4] = test: HIV-1(IIIB)-induced cytopathicity in CEM cell cultures; type: cell-based
Method in brief: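 Protection against cytopathicity caused by HIV-1 strain IIIB was measured in CEM cell cultures. The IIIB stock came from supernatants of infected MT-4 cell cultures, and virus was added to the cultures at 100 CCID50. At day 4 to 5 post infection, virus-induced giant cell formation was examined microscopically, and the EC50 was derived from this.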

Toxicity in CrFK cells = type: cell-based, feline; details: cat, CrFK cells; Table 2
[5] = test system: HIV-1(IIIB) strains containing L100I, K103N, Y181C and Y188H mutations in the RT; test: HIV-1(IIIB) strains with NNRTI-specific RT mutations in CEM cell cultures; type: cell-based; details: data not shown
Protocol: as §2

[6] = Inhibition of CEM cell growth (cytostatic activity); type: cell-based; details: human, CEM cells
Method in brief: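 MT-4 cells (5×10^4/well) exposed to compound dilutions for 5 days at 37 °C; CC50 = concentration cutting living cells by 50%, counted microscopically with trypan blue exclusion. CEM cytostatic CC50 defined likewise, by a previously described method.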

[7] = Alteration of C3H cell morphology (minimal inhibitory concentration); type: cell-based, murine; details: mouse, C3H/3T3 embryo fibroblast cells; microscopically visible alteration of cell morphology; > means no visible toxicity at the indicated concentration; read-out: CC50 C3H (minimal inhibitory concentration)
Cell viability in PBL = type: cell-based; details: human, PHA-stimulated peripheral blood mononuclear cells (PBL); reduction of cell viability; Table 2
[8] = Cell viability in monocyte/macrophages (M/M); type: cell-based, human; details: human
[9] = MT-4 cell toxicity (trypan blue exclusion); type: cell-based; details: human, MT-4 cells; reduction of cell viability; Table 2
Protocol: Cytostatic and antimetabolic effect of acyclic nucleoside phosphonates in vitro. The assays to examine the inhibition of CEM cell growth by the test compounds have been described previously (Balzarini et al., AIDS 5:21-28, 1991). The 50% cytostatic concentration (CC50) was defined as the concentration of compound that reduced the number of living cells by 50% . To measure MT-4 cell toxicity of the test compounds, 5×10^4 MT-4 cells were incubated in the wells of 96-well microplates in the presence or absence of different concentrations of the test compounds for 5 days at 37° C. The CC50 was then calculated from the number of living cells counted under a microscope by the trypan blue exclusion method.

[10] = 20 mg/kg, premature death not taken into account
[11] = 50 mg/kg, premature death not taken into account

C[C@H](Cn1cnc2c(N)ncnc21)OCP(=O)(O)O [(R)-PMPA, (R)-9-[(2-phosphonomethoxy)-propyl]adenine, reference compound]
EC50 HIV-1 (IIIB) (MT-4) (HIV-1(IIIB) [1]): 0.46 ± 0.006 µg/mL (≈ 1.6 µM)
Inhibition of [3H]dThd, [3H]Urd and [3H]leu incorporation into TCA-insoluble CEM cell material (macromolecular synthesis) (CEM cells): not inhibitory
-Fold Resistance HIV-1/L1S (HIV-1/L1S): 2.3 fold
-Fold Resistance HIV-1/L6S/PMEA (HIV-1/L6S/PMEA): 54 fold
-Fold Resistance HIV-1/L6S (HIV-1/L6S): 11 fold
EC50 HIV-2 (ROD) (MT-4) (HIV-2(ROD) [2]; Table 2): 0.52 µg/mL (≈ 1.81 µM)
CC50 C3H (minimal inhibitory concentration) (C3H cells; microscopically visible alteration of cell morphology, > means no visible toxicity at the indicated concentration): >200 µg/mL
CC50 PBL (PBL): >100 µg/mL
EC50 HIV-2 (ROD) (CEM) (HIV-2(ROD) [3]; giant cell formation, Table 2): 0.43 ± 0.41 µg/mL (≈ 1.5 µM)
Number of Long-Term Survivors (%) (>30 days) (MSV; 2 mg/kg): 31%
Number of Mice not Developing a Tumor (percent) (MSV; 2 mg/kg): 0%
Number of Long-Term Survivors (%) (>30 days) (MSV; 8 mg/kg): 83%
Number of Mice not Developing a Tumor (percent) (MSV; 8 mg/kg): 65%
Number of Mice not Developing a Tumor (percent) (MSV; 20 mg/kg): 92%
Number of Long-Term Survivors (%) (>30 days) (MSV; [10]): 100%
Number of Mice not Developing a Tumor (percent) (MSV; 50 mg/kg): 100%
Number of Long-Term Survivors (%) (>30 days) (MSV; [11]): 100%
EC50 as such (HIV-1(IIIB) [4]; HIV-1 (IIIB) in CEM, no addition, Table 3): 0.57 ± 0.26 µg/mL (≈ 1.98 µM)
EC50 upon addition of Ade (100 μM) (HIV-1(IIIB) [4]; HIV-1 (IIIB) in CEM, Ade 100 μM): 1.6 ± 1.6 µg/mL
EC50 upon addition of Ado (400 μM) (HIV-1(IIIB) [4]; HIV-1 (IIIB) in CEM, Ado 400 μM): 0.46 ± 0.23 µg/mL
EC50 upon addition of Guo (10 μM) (HIV-1(IIIB) [4]; HIV-1 (IIIB) in CEM, Guo 10 μM): 0.43 ± 0.0 µg/mL
EC50 upon addition of dCyd (1 mM) (HIV-1(IIIB) [4]; HIV-1 (IIIB) in CEM, dCyd 1 mM): 0.53 ± 0.26 µg/mL
EC50 upon addition of dThd (10 μM) (HIV-1(IIIB) [4]; HIV-1 (IIIB) in CEM, dThd 10 μM): 0.43 ± 0.0 µg/mL
EC50 HIV-1 (CEM) (HIV-1(IIIB) [4]; HIV-1(IIIB)-induced cytopathicity in CEM cell cultures, Table 1): 0.36 µg/mL (≈ 1.25 µM)
EC50 HIV-1 (IIIB) (CEM) (HIV-1(IIIB) [4]; giant cell formation, mean ±SD of 2 to 4 experiments, Table 2): 0.36 ± 0.24 µg/mL (≈ 1.25 µM)

Nc1cc(OCCOCP(=O)(O)O)nc(N)n1 [Compound 1, 2,4-diamino-6-[2-(phosphonomethoxy)ethoxy]pyrimidine]
CC50 (Toxicity in CrFK cells): 11 µg/mL (≈ 41.6 µM)
EC50 (HIV-1(IIIB) [1]; Human immunodeficiency virus 1, IIIB, MT4): 0.34 ± 0.03 µg/mL (≈ 1.29 µM)
Activity against NNRTI-specific mutant virus strains, in words [5]: retained full activity
Inhibition of [3H]dThd, [3H]Urd and [3H]leu incorporation into TCA-insoluble CEM cell material (macromolecular synthesis) (CEM cells): Neither compounds 1 nor 2, nor compound 11 were inhibitory
-Fold Resistance HIV-1/L1S (HIV-1/L1S): 0.8 fold
-Fold Resistance HIV-1/L6S/PMEA (HIV-1/L6S/PMEA): 3.6 fold
-Fold Resistance HIV-1/L6S (HIV-1/L6S): 1.5 fold
EC50 (HIV-2(ROD) [2]; Human immunodeficiency virus 2, MT4, read-out: EC50 HIV-2 (ROD) (MT-4)): 0.29 µg/mL (≈ 1.1 µM)
CC50 ([6]; 50% cytostatic concentration, CEM cell proliferation, Table 1, read-out: CC50 (CEM)): 11 µg/mL (≈ 41.6 µM)
CC50 ([6]; inhibition of cell proliferation, Table 2, read-out: CC50 CEM): 11 ± 2 µg/mL (≈ 41.6 µM)
CC50 ([6]; read-out: CC50 for CEM cells): 11 µg/mL (≈ 41.6 µM)
Minimal concentration causing visible cell morphology alteration [7]: > 40 µg/mL
Compound concentration at which morphological toxicity was observed, C3H (value between parentheses) (C3H cells; Table 2, footnote c): 200 μg/ml
CC50 (Cell viability in PBL): 2.2 ± 0.8 µg/mL (≈ 8.33 µM)
EC50 (HIV-2(ROD) [3]; Human immunodeficiency virus 2, CCRF-CEM, read-out: EC50 HIV-2 (ROD) (CEM)): 0.66 ± 0.19 µg/mL (≈ 2.5 µM)
Number of Long-Term Survivors (%) (>30 days) (MSV; 2 mg/kg): 15%
Number of Mice not Developing a Tumor (percent) (MSV; 2 mg/kg): 5%
Number of Long-Term Survivors (%) (>30 days) (MSV; 8 mg/kg): 89%
Number of Mice not Developing a Tumor (percent) (MSV; 8 mg/kg): 44%
Number of Mice not Developing a Tumor (percent) (MSV; 20 mg/kg): 80%
Number of Long-Term Survivors (%) (>30 days) (MSV; [10]): 100%
Number of Mice not Developing a Tumor (percent) (MSV; 50 mg/kg): 84%
Number of Long-Term Survivors (%) (>30 days) (MSV; [11]): 100^b %
Mice protected from tumor formation (MSV; 50 and 20 mg/kg): At least 80%
CC50 [8]: > 100 µg/mL
CC50 at 5 days [9]: 46 ± 7.4 µg/mL (≈ 174 µM)
EC50 (HIV-1(IIIB) [4]; Human immunodeficiency virus 1, CCRF-CEM, HIV-1 (IIIB) in CEM, no addition, Table 3, read-out: EC50 as such): 0.77 ± 0.25 µg/mL (≈ 2.91 µM)
EC50 (HIV-1(IIIB) [4]; Human immunodeficiency virus 1, CCRF-CEM, HIV-1 (IIIB) in CEM, Ade 100 μM, read-out: EC50 upon addition of Ade (100 μM)): 0.26 ± 0.16 µg/mL (≈ 0.984 µM)
EC50 (HIV-1(IIIB) [4]; Human immunodeficiency virus 1, CCRF-CEM, HIV-1 (IIIB) in CEM, Ado 400 μM, read-out: EC50 upon addition of Ado (400 μM)): 0.63 ± 0.29 µg/mL (≈ 2.38 µM)
EC50 (HIV-1(IIIB) [4]; Human immunodeficiency virus 1, CCRF-CEM, HIV-1 (IIIB) in CEM, Guo 10 μM, read-out: EC50 upon addition of Guo (10 μM)): 0.65 ± 0.21 µg/mL (≈ 2.46 µM)
EC50 (HIV-1(IIIB) [4]; Human immunodeficiency virus 1, CCRF-CEM, HIV-1 (IIIB) in CEM, dCyd 1 mM, read-out: EC50 upon addition of dCyd (1 mM)): 0.55 ± 0.35 µg/mL (≈ 2.08 µM)
EC50 (HIV-1(IIIB) [4]; Human immunodeficiency virus 1, CCRF-CEM, HIV-1 (IIIB) in CEM, dThd 10 μM, read-out: EC50 upon addition of dThd (10 μM)): 0.35 ± 0.07 µg/mL (≈ 1.32 µM)
EC50 (HIV-1(IIIB) [4]; Human immunodeficiency virus 1, CCRF-CEM, HIV-1(IIIB)-induced cytopathicity in CEM cell cultures, Table 1, read-out: EC50 HIV-1 (CEM)): 0.8 µg/mL (≈ 3.03 µM)
EC50 (HIV-1(IIIB) [4]; Human immunodeficiency virus 1, IIIB, CCRF-CEM, giant cell formation, mean ±SD of 2 to 4 experiments, Table 2, read-out: EC50 HIV-1 (IIIB) (CEM)): 0.9 ± 0.4 µg/mL (≈ 3.41 µM)
